Literature values as cited in patent publication US8399704B2, “Methods for salt production” (Colgate-Palmolive Company, priority 2008, dated 2013).

Conditions: room temperature, natural partial pressure (3.5×10^−4 atmosphere)

For `O=C=O` [Carbon dioxide], the “maximum concentration of carbon dioxide in water” value is listed as “about 1.2×10^−5 M”.
